Assay results: patent US12454530B2, “Amido cyclohexane acid derivatives as LPA receptor inhibitors” (CHIESI FARMACEUTICI S.P.A., priority 2020, dated 2025)

Columns and labels:
BSEP = BSEP (Homo sapiens (Human), UniProt O95342); assay: BSEP inhibition: biliary clearance of Taurocolic Acid in sandwich-cultured human hepatocytes; type: in vitro ADME; conditions: sandwich-cultured cryopreserved human hepatocytes, probe Taurocolic Acid (TCA); 50 μM test compound, 10 μM TCA, human hepatocytes sandwich configuration
Experimental: BSEP inhibition was evaluated using human hepatocytes cultured between two layer of collagen (sandwich configuration). In this culture condition, hepatocytes express relevant transporters including BSEP and retain the bile canalicular structure. An inhibition of the biliary clearance of Taurocolic Acid (TCA), a known BSEP substrate, was used to assess BSEP interaction.
BSEP inhibition was evaluated using cryopreserved human hepatocytes (Plateable Cryopreserved Human Hepatocytes, BIOIVT) cultured for 5 day between two layer of collagen (sandwich configuration). In this culture condition, hepatocytes express relevant transporters including BSEP and retain the bile canalicular structure.
On day 5 of culture, hepatic cells are ready for the assay and the biliary clearance of Taurocolic Acid (TCA), a known BSEP substrate, can be estimated in presence and in absence of compound of interest.
The sample solution was prepared dissolving test compound and TCA in DMSO and then diluted in the Assay Buffer: Hank's Balance Salt Solution (HBSS+) warmed at 37° C. before use, to give the 10 μM TCA working solution with and without 50 μM of test compound. Hepatocytes were incubated for 10 minutes with these working solutions allowing TCA to be excreted into bile. At the end of incubation, the working solution was aspirated, and the content of the bile was collected through the addition of HBSS Modified without Ca2+/Mg2+(HBSS−). The presence of Ca2+ in the buffer is required to maintain the integrity of the tight junctions, the diffusional barrier between the canalicular lumen and extracellular space. Instead, incubation of cells in Ca2+-free buffer disrupts the tight junctions and opens the bile canalicular structures, allowing the bile content to be released and collect for HPLC-MS/MS analysis.
The in vitro biliary clearance of TCA incubated with and without test compounds is calculated according to the following formula:
where • Acc. Bile=(TCA amount in HBSS (−) buffer samples (pmol/mg protein)*Volume of each samples (mL))/Protein content per well (mg) • AUC=Incubation time (min)*T0 Concentration. T0 concentration is the initial TCA concentration in the medium.
The inhibition of BSEP was calculated as percentage of inhibition of TCA biliary clearance in presence of compound of interest, according to the following formula: BSEP inhibition %=100−(TCA ClBil with test compound*100)
TCA ClBil without test compound.

[1] = Permeability on Caco-2 cells monolayers; type: in vitro ADME; conditions: human, with Elacridar 10 µM (PgP inhibitor), Papp A>B with PgP inhibitor Elacridar, 10 μM compound, read-out: Passive Permeability
Experimental: Even more advantageously, the compounds of formula (I) of the present invention are also endowed with a good permeability profile that, in its turn, can ensure a suitable bioavailability for an oral administration. The permeability was assessed in human Caco 2 cell line, an in vitro model that mimic human gastrointestinal barrier and so useful to predic oral absorption.
The permeability of the compounds of the present invention was evaluated performing the assay on Caco-2 cells monolayers (human colon adenocarcinoma immortalized cell) by measuring the transport of compound (absorption and secretion) in both directions: apical to basolateral direction (A>B) and basolateral to apical (B>A) with and without PgP inhibitor (Elacridar).
The cells, purched from ReadyCell in 96 well format (Cod. KRECE-CCR50), were cultured by the supplier for 21 day on transwell supports in DMEM 1 g/L glucose culture medium supplemented with Fetal Bovin Sierum (10%), Glutamine 200 mM (1%) and Penicillin 10000 U/ml-10 mg/ml Streptomycin (1%).
On day 21 of colture, cell monolayers integrity was verified by measuring the trans-epithelial electric resistance (TEER) using the EVOM equipment (Endohm, WPI, Germany) and studying the apparent permeability (Papp) of reference compounds (Sulpiride and Metoprolol). Furthermore, as a control, the Talinolol 10 uM (Pgp efflux substrate) with and without Elacridar in both directions was used.
The sample solution was prepared dissolving test compound in DMSO at the concentration of 10 mM and then diluted in the Assay Buffer (Hank's Balance Salt Solution) warmed at 37° C. before use, to give the 10 μM Compound working solution with and without 10 μM Elacridar. These working solutions were added to donor compartment (apical for A>B direction and basolateral for B>A direction) and Assay Buffer (Hank's Balance Salt Solution) to the receiver compartment (basolateral for A>B direction and apical for B>A direction). The plate was incubated at 37° C. for 120 min, all incubation were conducted in triplicates. At the end of incubation, samples from donor and receiver compartments were collected for HPLC-MS/MS analyses.
The permeability coefficients (Papp) in both directions: apical to basolateral (A>B) and basolateral to apical (B>A) with and without PgP inhibitor (Elacridar) was calculated in nm/sec, using the following equation:
[formula] • where: • Cr=measured concentration in the receiver well at the time t (expressed as IS ratio) • Vr=volume of the receiver well (ml) • t=time (sec) • A=membrane surface area (cm^2) • C0=initial donor concentration • Passive Papp is considered Papp A>B with PgP inhibitor Elacridar.

[2] = molecular target: human recombinant LPA1 expressed in CHO cells (Homo sapiens (Human), UniProt Q92633); assay: LPA1 antagonist FLIPR calcium assay in CHO-hLPA1 cells; type: cell-based; conditions: range of activity; CHO-hLPA1, LPA EC80, Ca2+ mobilization; read-out: LPA1 IC50
Experimental: The effectiveness of compounds of the present invention as LPA1 antagonists can be determined at the human recombinant LPA1 expressed in CHO cells, using a FLIPR assay in 384 well format.
CHO-hLPA1 cell lines are cultured in a humidified incubator at 5% CO2 in DMEM/F-12 (1:1) MIXTURE with 2 mM Glutamax, supplemented with 10% of Foetal Bovine Serum, 1 mM Sodium Pyruvate, 11 mM Hepes and 1× Penicillin/Streptomycin. […] Serial dilutions (1:3 or 1:4, 11 points CRC) of compounds are performed in 100% DMSO at 200× the final concentration. […] The final concentration of DMSO in the assay will be 0.5% in each well. Medium is removed by aspiration and cells are then incubated with 30 μl of a loading solution containing 5 μM of the cytoplasmic Ca2+ indicator Cal-520 AM in Assay Buffer containing 2.5 mM probenecid for 30 min at 37° C. incubator (cell loading). The loaded cell plates are transferred into the FLIPR instrument and calcium responses are monitored during the on-line addition protocols. For testing of compounds, after the cell loading, 10 μl/well of 4× antagonists' solution was added onto the cells. After 30 min pre-incubation (at 37° C.), 10 μl/well of 5× concentrated LPA EC80 was added and Ca2+ mobilization responses was followed during the on-line addition protocol. Intracellular peak fluorescence values subtracted by baseline fluorescence are exported and analysed to determine IC50 values, respectively. The calcium response is expressed as percentage of the maximal inhibition of the EC80 agonist response.
The raw data (peak height expressed as relative fluorescence units) are normalized and transformed into “percent of inhibition”. Curve fitting and pIC50 (−LogIC50) estimations are carried out using a four-parameter logistic model using XLfit Software.

BSEP, sequence (O95342 whole entry): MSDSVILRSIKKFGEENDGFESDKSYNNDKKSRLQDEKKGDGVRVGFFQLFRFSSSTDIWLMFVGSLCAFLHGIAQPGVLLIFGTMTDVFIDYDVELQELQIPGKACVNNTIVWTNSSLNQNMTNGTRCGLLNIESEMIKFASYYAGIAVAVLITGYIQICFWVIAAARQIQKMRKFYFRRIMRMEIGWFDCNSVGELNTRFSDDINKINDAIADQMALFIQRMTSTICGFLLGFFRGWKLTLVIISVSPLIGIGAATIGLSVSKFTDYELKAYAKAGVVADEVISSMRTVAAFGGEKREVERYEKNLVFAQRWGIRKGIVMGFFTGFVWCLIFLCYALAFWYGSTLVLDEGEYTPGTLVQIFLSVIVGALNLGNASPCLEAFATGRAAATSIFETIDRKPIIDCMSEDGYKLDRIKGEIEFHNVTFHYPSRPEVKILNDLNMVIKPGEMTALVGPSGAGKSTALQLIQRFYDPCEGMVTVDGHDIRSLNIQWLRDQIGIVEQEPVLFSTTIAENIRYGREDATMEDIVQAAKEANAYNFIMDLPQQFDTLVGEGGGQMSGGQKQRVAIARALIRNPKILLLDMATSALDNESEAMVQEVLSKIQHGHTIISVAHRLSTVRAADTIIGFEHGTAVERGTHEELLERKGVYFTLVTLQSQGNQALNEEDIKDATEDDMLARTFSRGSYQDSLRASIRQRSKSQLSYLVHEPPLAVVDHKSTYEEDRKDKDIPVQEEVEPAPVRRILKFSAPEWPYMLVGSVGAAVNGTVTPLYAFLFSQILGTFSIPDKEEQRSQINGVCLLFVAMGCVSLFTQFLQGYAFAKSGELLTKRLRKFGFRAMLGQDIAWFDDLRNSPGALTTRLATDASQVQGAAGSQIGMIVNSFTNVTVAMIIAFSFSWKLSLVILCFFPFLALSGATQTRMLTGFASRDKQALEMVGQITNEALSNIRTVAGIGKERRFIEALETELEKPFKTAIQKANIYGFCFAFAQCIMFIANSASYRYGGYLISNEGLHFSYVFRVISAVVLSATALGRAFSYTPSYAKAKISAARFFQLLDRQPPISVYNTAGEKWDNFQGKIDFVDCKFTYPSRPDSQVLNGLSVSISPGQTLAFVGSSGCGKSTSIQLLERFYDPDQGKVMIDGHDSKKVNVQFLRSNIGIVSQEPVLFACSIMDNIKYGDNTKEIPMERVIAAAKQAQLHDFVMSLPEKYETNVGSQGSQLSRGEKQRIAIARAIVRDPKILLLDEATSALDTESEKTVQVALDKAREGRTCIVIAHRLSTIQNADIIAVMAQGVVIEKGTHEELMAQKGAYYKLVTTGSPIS
human recombinant LPA1 expressed in CHO cells, sequence (Q92633 whole entry): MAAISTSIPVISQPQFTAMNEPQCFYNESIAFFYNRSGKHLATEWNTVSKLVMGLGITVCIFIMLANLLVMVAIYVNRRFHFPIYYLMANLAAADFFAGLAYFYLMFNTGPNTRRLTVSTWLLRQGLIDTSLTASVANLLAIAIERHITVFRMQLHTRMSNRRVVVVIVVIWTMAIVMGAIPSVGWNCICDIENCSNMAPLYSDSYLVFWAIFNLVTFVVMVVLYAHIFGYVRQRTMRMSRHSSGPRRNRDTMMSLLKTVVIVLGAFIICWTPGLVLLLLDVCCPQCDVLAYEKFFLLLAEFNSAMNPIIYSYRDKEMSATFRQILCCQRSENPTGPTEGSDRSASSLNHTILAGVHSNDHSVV

Row | Papp at 120 min, 10 µM [1] [×10⁻⁶ cm/s] | IC50 [2] [µM] | Compound | inhibition at 10 min, 50 μM (BSEP) [%]
1 | ≥ 1.5 | < 0.05 | C[C@@H](OC(=O)Nc1ccsc1-c1ccc(NC(=O)C2CCCCC2C(=O)O)cc1)c1ccccc1Cl (single isomer, unassigned) [Example 7] | ≤ 50
2 | ≥ 1.5 | – | Cc1nc(-c2onc(C)c2NC(=O)O[C@H](C)c2ccccc2Cl)ccc1NC(=O)C1CCCCC1C(=O)O (single isomer, unassigned) [Example 13] | ≤ 50
3 | ≥ 1.5 | – | Cc1nc(-c2cnn(C)c2NC(=O)O[C@H](C)c2ccccc2Cl)ccc1NC(=O)[C@H]1CCCC[C@@H]1C(=O)O (stereo in doubt) [Example 2, (1S,2S)-2-((6-(5-((((R)-1-(2-chlorophenyl)ethoxy)carbony1)amino)-1-methyl-1H-pyrazol-4-yl)-2-methylpyridin-3-y1)carbamoyl)cyclohexane-1-carboxylic acid] | ≤ 50
4 | ≥ 1.5 | 0.05 to 0.25 | Cc1noc(-c2ccc(NC(=O)C3CCCCC3C(=O)O)cn2)c1NC(=O)O[C@H](C)c1ccccc1 (stereo in doubt) [Example 40, Cis-2-((6-(3-methyl-4-((((R)-1-phenylethoxy)carbonyl)amino)isoxazol-5-y1)pyridin-3-yl)carbamoyl)cyclohexane-1-carboxylic acid] | ≤ 50
5 | ≥ 1.5 | – | Cc1nc(-c2onc(C)c2NC(=O)O[C@H](C)c2ccccc2Cl)ccc1NC(=O)[C@H]1CCCC[C@@H]1C(=O)O [Example 1, (1S,2S)-2-((6-(4-((((R)-1-(2-chlorophenyl)ethoxy)carbonyl)amino)-3-methylisoxazol-5-yl)-2-methylpyridin-3-yl)carbamoyl)cyclohexane-1-carboxylic acid] | ≤ 50
6 | ≥ 1.5 | – | Cc1nc(-c2onc(C)c2NC(=O)O[C@H](C)c2ccccc2Cl)ccc1NC(=O)[C@@H]1CCCC[C@H]1C(=O)O [Example 12, (1R,2R)-2-((6-(4-((((R)-1-(2-chlorophenyl)ethoxy)carbonyl)amino)-3-methylisoxazol-5-yl)-2-methylpyridin-3-yl)carbamoyl)cyclohexane-1-carboxylic acid] | ≤ 50
7 | ≥ 1.5 | – | Cc1noc(-c2ccc(NC(=O)[C@H]3CCCC[C@@H]3C(=O)O)cn2)c1NC(=O)O[C@H](C)c1ccccc1Cl [Example 16, (1S,2S)-2-((6-(4-((((R)-1-(2-chlorophenyl)ethoxy)carbonyl)amino)-3-methylisoxazol-5-yl)pyridin-3-yl)carbamoyl)cyclohexane-1-carboxylic acid] | ≤ 50
8 | ≥ 1.5 | – | Cc1nc(-c2onc(C)c2NC(=O)O[C@H](C)c2ccccc2)ccc1NC(=O)[C@H]1CCCC[C@@H]1C(=O)O [Example 27, (1S,2S)-2-((2-methyl-6-(3-methyl-4-((((R)-1-phenylethoxy)carbonyl)amino)isoxazol-5-yl)pyridin-3-yl)carbamoy1)cyclohexane-1-carboxylic acid] | ≤ 50
9 | ≥ 1.5 | < 0.05 | Cc1nc(-c2onc(C)c2NC(=O)O[C@H](C)c2ccccc2Br)ccc1NC(=O)[C@H]1CCCC[C@@H]1C(=O)O [Example 28, (1S,2S)-2-((6-(4-((((R)-1-(2-bromophenyl)ethoxy)carbonyl)amino)-3-methylisoxazol-5-yl)-2-methylpyridin-3-yl)carbamoyl)cyclohexane-1-carboxylic acid] | –
10 | ≥ 1.5 | – | Cc1ccccc1[C@@H](C)OC(=O)Nc1c(C)noc1-c1ccc(NC(=O)[C@H]2CCCC[C@@H]2C(=O)O)c(C)n1 [Example 32, (1S,2S)-2-((2-methyl-6-(3-methyl-4-((((R)-1-(o-toly1)ethoxy)carbonyl)amino)isoxazol-5-yl)pyridin-3-yl)carbamoyl)cyclohexane-1-carboxylic acid] | ≤ 50
11 | ≥ 1.5 | – | Cc1nc(-c2onc(C)c2NC(=O)O[C@H](C)c2ccccc2)ccc1NC(=O)C1CCCCC1C(=O)O (stereo partly drawn) [Example 39, Cis-2-((2-methyl-6-(3-methyl-4-((((R)-1-phenylethoxy)carbonyl)amino)isoxazol-5-yl)pyridin-3-yl)carbamoyl)cyclohexane-1-carboxylic acid] | ≤ 50
12 | ≥ 1.5 | – | Cc1nc(-c2snc(C)c2NC(=O)O[C@H](C)c2ccccc2Cl)ccc1NC(=O)[C@H]1CCCC[C@@H]1C(=O)O [Example 42, (1S,2S)-2-((6-(4-((((R)-1-(2-chlorophenyl)ethoxy)carbonyl)amino)-3-methylisothiazol-5-yl)-2-methylpyridin-3-yl)carbamoyl)cyclohexane-1-carboxylic acid] | –
13 | ≥ 1.5 | – | CCC[C@@H](C)OC(=O)Nc1c(C)noc1-c1ccc(NC(=O)[C@H]2CCCC[C@@H]2C(=O)O)c(C)n1 [Example 49, (1S,2S)-2-((2-methyl-6-(3-methyl-4-(((((R)-pentan-2-yl)oxy)carbonyl)amino)isoxazol-5-yl)pyridin-3-yl)carbamoyl)cyclohexane-1-carboxylic acid] | ≤ 50
14 | < 1.5 | – | Cc1noc(-c2ccc(NC(=O)[C@H]3CCCC[C@@H]3C(=O)O)cc2)c1NC(=O)O[C@H](C)c1ccccc1Cl [comparative Example A, (1S,2S)-2-({4-[3-methyl-4-({[(1R)-1-(2-chlorophenyl)ethoxy]carbonyl}amino)-1,2-oxazol-5-yl]phenyl}carbamoyl)cyclohexane-1-carboxylic acid, reference compound] | > 70
